In brackets after ≈: the same amount, converted by molar mass. Each block holds one compound with its values, some of them ahead of it.
What was measured:
Staphylococcus aureus [1] = experiment: Antibacterial activity against Staphylococcus aureus assessed as reduction in bacterial cell growth at 0.03 to 64 ug/ml incubated for 16 to 18 hrs by CLSI broth dilution method; assay type: functional
Escherichia coli = experiment: Antibacterial activity against Escherichia coli assessed as diameter of zone inhibition at 100 ppm by disc diffusion method; assay type: functional; settings: read-out: DIZ
Staphylococcus aureus [2] = experiment: Antibacterial activity against Staphylococcus aureus assessed as diameter of zone inhibition at 100 ppm by disc diffusion method; assay type: functional; settings: read-out: DIZ
Acinetobacter baumannii [3] = experiment: Antibacterial activity against multidrug-resistant Acinetobacter baumannii assessed as reduction in bacterial cell growth incubated for 24 hrs by broth dilution method; assay type: functional
[4] = Cytotoxicity against human HepG2 cells assessed as reduction in cell viability at 0 to 50 uM incubated for 48 hrs by MTT assay; assay type: cell-based; settings: read-out: LD50
Acinetobacter baumannii [5] = experiment: Antibacterial activity against Acinetobacter baumannii 1646 infected in mouse model of peritonitis assessed as increase in survival rate at 2 mg/kg, ip dosed at 1 hr post infection (reference value: 66%); assay type: functional; settings: Acinetobacter baumannii, 1646, ip
MCF7 = experiment: Cytotoxicity against human MCF7 cells assessed as reduction in cell viability at 0.1 to 100 uM by MTT assay; assay type: functional, cell-based
Staphylococcus aureus [6] = experiment: Antibacterial activity against methicillin-resistant Staphylococcus aureus assessed as reduction in bacterial cell growth at 0.5 to 512 ug/ml incubated for 24 hrs by CLSI broth microdilution method; assay type: functional
Helicobacter pylori = experiment: Antibacterial activity against Helicobacter pylori assessed as reduction in bacterial cell growth by agar dilution method; assay type: functional

MIC (Staphylococcus aureus [1]): 4 µg/mL (≈ 7.24 µM)
Structure (SMILES): COc1ccc(-n2cc(COc3cccc(-n4c(/C=C/c5ccc(C#N)cc5)nc5ccccc5c4=O)c3)nn2)cc1

Structure (SMILES): Cc1nc2ccc(I)cc2c(=O)n1/N=C/c1cc(I)cc(I)c1O
zone of inhibition at 100 ppm (Escherichia coli): 16 mm
zone of inhibition at 100 ppm (Staphylococcus aureus [2]): 14 mm

Structure (SMILES): Cc1nc2ccc(Br)cc2c(=O)n1/N=C/c1cc(Cl)cc(Cl)c1O
zone of inhibition at 100 ppm (Escherichia coli): 16 mm
zone of inhibition at 100 ppm (Staphylococcus aureus [2]): 14 mm

Structure (SMILES): CNc1nc(NCc2ccccc2)nc2ccc(Br)cc12
MIC (Acinetobacter baumannii [3]): 0.5 µM (≈ 0.172 µg/mL)
CC50 at 48 h [4]: 23 µM
survival at 2 mg/kg (Acinetobacter baumannii [5]): 90%

Structure (SMILES): N#Cc1ccc(/C=C/c2nc3ccccc3c(=O)n2-c2ccc(O)cc2)cc1
MIC (Staphylococcus aureus [1]): 8 µg/mL (≈ 21.9 µM)

MIC (Staphylococcus aureus [1]): 4 µg/mL (≈ 7.27 µM)
Structure (SMILES): O=c1c2ccccc2nc(/C=C/c2ccc(Cl)cc2)n1-c1cccc(OCc2cn(-c3cccc(F)c3)nn2)c1

MIC (Staphylococcus aureus [1]): 2 µg/mL (≈ 3.44 µM)
Structure (SMILES): N#Cc1ccc(/C=C/c2nc3ccccc3c(=O)n2-c2cccc(OCc3cn(Cc4ccc([N+](=O)[O-])cc4)nn3)c2)cc1

Structure (SMILES): Cn1cc[n+](C(Cn2cnc3ccc(Cl)cc3c2=O)c2cc3ccccc3o2)c1 (stereo unspecified)
IC50 (MCF7): 0.57 to 1 µM

Structure (SMILES): Cc1nc2ccc(Br)cc2c(=O)n1/N=C/c1cc(Br)cc(Br)c1O
zone of inhibition at 100 ppm (Escherichia coli): 27 mm
zone of inhibition at 100 ppm (Staphylococcus aureus [2]): 24 mm

Structure (SMILES): O=c1c2ccc(F)cc2ncn1CC(O)Cn1cncn1 (stereo unspecified)
MIC (Staphylococcus aureus [6]): 8 µg/mL (≈ 27.7 µM)

Structure (SMILES): CNc1nc(NCc2ccccc2)nc2cc(Br)ccc12
MIC (Acinetobacter baumannii [3]): 0.5 µM (≈ 0.172 µg/mL)
CC50 at 48 h [4]: 23 µM
survival at 2 mg/kg (Acinetobacter baumannii [5]): 90%

Structure (SMILES): COc1cc(/C=N/n2c(C)nc3ccc(Br)cc3c2=O)cc(Br)c1O
zone of inhibition at 100 ppm (Escherichia coli): 16 mm
zone of inhibition at 100 ppm (Staphylococcus aureus [2]): 14 mm

MIC (Staphylococcus aureus [1]): > 64 µg/mL
Structure (SMILES): CN(C)/C=C/c1nc2ccccc2c(=O)n1-c1cccc(C(=O)NC2CC2)c1

MIC (Staphylococcus aureus [1]): 0.5 µg/mL (≈ 0.882 µM)
Structure (SMILES): COc1ccc(Cn2cc(COc3cccc(-n4c(/C=C/c5ccc(C#N)cc5)nc5ccccc5c4=O)c3)nn2)cc1

Structure (SMILES): N#Cc1ccc(/C=C/c2nc3ccccc3c(=O)n2-c2cccc(OCc3cn(-c4cccc(Cl)c4)nn3)c2)cc1
MIC (Staphylococcus aureus [1]): 0.5 µg/mL (≈ 0.898 µM)

Structure (SMILES): Cc1nc2ccc(I)cc2c(=O)n1/N=C/c1cc(Br)cc(Br)c1O
zone of inhibition at 100 ppm (Escherichia coli): 16 mm
zone of inhibition at 100 ppm (Staphylococcus aureus [2]): 14 mm

MIC (Staphylococcus aureus [1]): 2 µg/mL (≈ 4.91 µM)
Structure (SMILES): Cc1cccc2c(=O)n(-c3cccc(C(=O)O)c3)c(/C=C/c3ccc(C#N)cc3)nc12

MIC (Staphylococcus aureus [1]): 0.125 µg/mL (≈ 0.308 µM)
Structure (SMILES): C=CCOc1cccc(-n2c(/C=C/c3ccc(C#N)cc3)nc3ccccc3c2=O)c1

MIC (Helicobacter pylori): 25 µg/mL (≈ 49.4 µM)
Structure (SMILES): Nc1nc(-n2c(-c3ccc([N+](=O)[O-])cc3)nc3ccccc3c2=O)nnc1-c1cccc(Cl)c1Cl

Structure (SMILES): Cn1cc[n+](C(Cn2cnc3ccccc3c2=O)c2cc3ccccc3o2)c1 (stereo unspecified)
IC50 (MCF7): 0.57 to 1 µM

MIC (Staphylococcus aureus [1]): 0.25 µg/mL (≈ 0.575 µM)
Structure (SMILES): CC(C)NC(=O)c1cccc(-n2c(/C=C/c3ccc(C#N)cc3)nc3ccccc3c2=O)c1

Structure (SMILES): CNc1nc(NCc2ccccc2)nc2ccc(Cl)cc12
MIC (Acinetobacter baumannii [3]): 0.5 µM (≈ 0.149 µg/mL)
CC50 at 48 h [4]: 23 µM
survival at 2 mg/kg (Acinetobacter baumannii [5]): 90%

Structure (SMILES): COc1cc(/C=N/n2c(C)nc3ccc(I)cc3c2=O)cc(I)c1O
zone of inhibition at 100 ppm (Escherichia coli): 16 mm
zone of inhibition at 100 ppm (Staphylococcus aureus [2]): 14 mm

Structure (SMILES): Cc1nc2ccc(I)cc2c(=O)n1/N=C/c1cc(Cl)cc(Cl)c1O
zone of inhibition at 100 ppm (Escherichia coli): 16 mm
zone of inhibition at 100 ppm (Staphylococcus aureus [2]): 14 mm

Structure (SMILES): Cc1nc2ccc(Br)cc2c(=O)n1/N=C/c1cc(I)cc(I)c1O
zone of inhibition at 100 ppm (Escherichia coli): 16 mm
zone of inhibition at 100 ppm (Staphylococcus aureus [2]): 14 mm

Structure (SMILES): Cc1cccc2c(=O)n(-c3cccc(O)c3)c(/C=C/c3ccc(C#N)cc3)nc12
MIC (Staphylococcus aureus [1]): 0.5 µg/mL (≈ 1.32 µM)

MIC (Staphylococcus aureus [1]): 1 µg/mL (≈ 2.4 µM)
Structure (SMILES): C#CCOc1cccc(-n2c(/C=C/c3ccc(C#N)cc3)nc3c(C)cccc3c2=O)c1

MIC (Staphylococcus aureus [1]): 0.5 µg/mL (≈ 0.898 µM)
Structure (SMILES): N#Cc1ccc(/C=C/c2nc3ccccc3c(=O)n2-c2cccc(OCc3cn(-c4ccc(Cl)cc4)nn3)c2)cc1

MIC (Staphylococcus aureus [1]): 0.5 µg/mL (≈ 0.932 µM)
Structure (SMILES): N#Cc1ccc(/C=C/c2nc3ccccc3c(=O)n2-c2cccc(OCc3cn(Cc4ccccc4)nn3)c2)cc1

Structure (SMILES): CNc1nc(NCc2ccccc2)nc2ccc(C)cc12
MIC (Acinetobacter baumannii [3]): 0.5 µM (≈ 0.139 µg/mL)
CC50 at 48 h [4]: 23 µM
survival at 2 mg/kg (Acinetobacter baumannii [5]): 90%

Source: ChEMBL document CHEMBL4385594, “4(3H)-Quinazolinone derivatives: Promising antibacterial drug leads” (Eur J Med Chem, 2019)
